Test results as given in patent publication US20090124688A1, “Prostaglandin reductase inhibitors” (priority 2006, published 2009).
One block for each compound: values may come before it.

Key:
[1] = target: T1, PGR-2 (Mus musculus, UniProt Q8VDQ1); assay: PGR-2 enzymatic activity: substrate specificity and kinetics; assay type: biochemical; settings: for specific activity with PGR-2 (substrate specificity): 15-keto PGE2 replaced with the substrate, 0.5 mM NADPH, 2 hours at 37° C.; for reduction catalyzed by PGR-2 (kinetics studies): recombinant PGR-2, NADPH cofactor
T1 construct: GST (N); made in house; host or cells: E. coli
Procedure: Mouse PGR-2 was recombinantly expressed in E. coli as a GST fusion protein following standard procedures. The recombinant PGR-2 protein thus obtained was used to determine substrate specificity and enzymatic kinetics.
Substrate specificity of PGR-2 was determined using the just-described procedure, except that 15-keto PGE2 was replaced with each of six prostaglandin substrates, each of three downstream metabolites, or leukotriene B4. The substrates were purchased from Cayman Chemical Company (Michigan, USA).
Unlike PGR/LTB4DH, PGR-2 used NADPH as a cofactor much more efficiently than NADH.
The substrate was 15-keto prostaglandin E1, 15-keto prostaglandin E2, 15-keto prostaglandin F1α, 15-keto prostaglandin F2α, 15-keto-fluprostenol isopropyl ester, or 15-keto-fluprostenol, which were purchased from Cayman Chemical Company (Michigan, USA). […] Absorbance at 490 nm was measured by an ELISA plate reader.

[2] = system: PPARs; assay: Reporter gene assay of endogenous PPARs activity in 3T3-L1 cells; assay type: cell-based, mouse; settings: 3T3-L1 cells induced to differentiate for two days, transfected with reporter gene
Procedure: (§1) The effect of prostaglandin on PPAR-γ activity in adipocytes was investigated. After treatment with a medium that induces cell differentiation, 3T3-L1 cells were treated from day 2 to 4 during adipogenesis with 14 μM 15-keto PGE2, 13,14-dihydro-15-keto PGE2, 15-keto PGF2α, 13,14-dihydro-15-keto PGF2α, or 4.5 μM of BRL49653 (a PPAR-γ agonist). See Forman et al., Cell (1995) 83:803-812. At day 6, aggregates of lipid droplets were stained with oil-red O for observation. […] After being induced to differentiate for two days, the 3T3-L1 cells were transfected with a reporter gene.

[3] = target: T2, PPAR-α (Homo sapiens, UniProt Q07869); assay: Luciferase reporter with PPAR ligand-binding domain fused to GAL4 DNA-binding domain in 3T3-L1 cells; assay type: cell-based; settings: relative to PPAR-γ activation
T2 construct: expressed in transfected cells; host or cells: 3T3-L1
T2 sequence (Q07869 239-466 limits assumed): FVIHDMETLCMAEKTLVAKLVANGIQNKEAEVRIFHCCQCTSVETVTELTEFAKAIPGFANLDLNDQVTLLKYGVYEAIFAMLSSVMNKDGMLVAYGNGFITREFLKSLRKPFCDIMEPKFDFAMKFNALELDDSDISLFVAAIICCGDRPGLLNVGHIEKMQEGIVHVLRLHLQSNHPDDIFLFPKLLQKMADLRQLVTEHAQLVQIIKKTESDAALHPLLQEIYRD
Source text: (§2) A luciferase reporter gene was transfected to 3T3-L1 cells together with the ligand-binding domain of […], PPAR-γ or […] fused to a yeast GAL4 DNA-binding domain.

[4] = target: T3, PPAR-γ (Homo sapiens, UniProt P37231); assay: as above; assay type: cell-based
T3 construct: expressed in transfected cells; host or cells: 3T3-L1
T3 sequence (P37231 238-503 limits assumed): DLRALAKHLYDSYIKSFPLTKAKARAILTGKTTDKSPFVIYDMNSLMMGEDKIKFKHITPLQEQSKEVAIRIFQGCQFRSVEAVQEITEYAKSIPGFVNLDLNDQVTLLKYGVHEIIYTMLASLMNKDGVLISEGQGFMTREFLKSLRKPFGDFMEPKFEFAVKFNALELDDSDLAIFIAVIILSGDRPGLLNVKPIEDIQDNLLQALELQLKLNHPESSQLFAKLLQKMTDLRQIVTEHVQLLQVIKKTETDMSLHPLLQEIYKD
Source text: as §2

[5] = system: 3T3-L1 cells; assay: Adipogenesis in 3T3-L1 cells, oil-red O staining of lipid droplets; assay type: cell-based, mouse; settings: 14 μM, day 2 to 4 during adipogenesis; stained at day 6
Procedure: as §1

[6] = system: PPAR-γ target genes; assay: Protein expression of adipogenesis-specific PPAR-γ target genes in 3T3-L1 cells; assay type: cell-based, mouse
Source text: Also examined was the ability of 15-keto PGE2 to induce protein expression of adipogenesis-specific, PPAR-γ target genes, i.e., IRS-1and -2.

[7] = system: 3T3-L1 cells; assay: Glucose transport assay, uptake of 2-deoxy-D-[3H]glucose in differentiated 3T3-L1 cells; assay type: cell-based, mouse
Procedure: 3T3-L1cells were induced to differentiate in the same manner as described above. A glucose transport assay was performed by measuring uptake of 2-deoxy-D-[3H]glucose as described by Fingar et al. See Fingar et al., Endocrinology 134:728-735. 1.67 μM of the compound or 45 nM of a PPARs agonist, i.e., Avandia, was added to the cells. 10 μM cytochalasin-B was used to measure background glucose uptake levels.

[8] = system: Female diabetic mice (C57BLKS/J-m+/+Lep^db); assay: Blood glucose levels in diabetic mice; assay type: in vivo, mouse; settings: 25 mg/kg intraperitoneally twice a day for two days; fasted 48th through 52nd hour
Procedure: The in vivo effect compound 45 on glucose metabolism was also investigated. Female diabetic mice were obtained from the Jackson Laboratory (C57BLKS/J-m+/+Lep^db, 12 to 13 weeks old). These mice were characterized as insulin-resistant and hyperglycemic. 25 mg/kg of 2,2′-dihydroxychalcone (n=8) or placebo (n=4, final concentration against body fluid: 0.5% DMSO/1% ethanol) was injected intraperitoneally to the mice twice a day for two days. The mice were then fasted from the 48th hour through 52nd hour after the first injection. Blood samples were collected from the retro-orbital sinus before the first injection, and every two hours after two days of treatment. Blood glucose levels were measured by an electrode-type blood glucose meter (HORIBA, AntSense II, Japan).

[9] = system: PGR-2; assay: RNA interference silencing of PGR-2 expression in 3T3-L1 cells; assay type: cell-based, mouse; settings: transfection into 3T3-L1 fibroblasts or differentiating pre-adipocytes
Source text: (§3) An RNA interference (RNAi) approach was used to silence PGR-2 expression. Two small interfering RNA (siRNA) duplexes, i.e., […] (SEQ ID NO:7) and […] (SEQ ID NO:8), were annealed first and then introduced into 3T3-L1 fibroblasts or differentiating pre-adipocytes by transfection using oligofectamine (Invitrogen). Transfection of the siRNA duplexes reduced PGR-2 expression. In another experiment, transfection of the siRNA duplexes increased transcriptional activation of PPAR-γ. Thus, one can modulate PPAR-γ activity via silencing PGR-2 expression by RNA interference.

[10] = system: PPAR-γ; assay: Transcriptional activation of PPAR-γ after siRNA transfection; assay type: cell-based; settings: transfection of siRNA duplexes
Source text: as §3

T1 sequence (Q8VDQ1 whole entry): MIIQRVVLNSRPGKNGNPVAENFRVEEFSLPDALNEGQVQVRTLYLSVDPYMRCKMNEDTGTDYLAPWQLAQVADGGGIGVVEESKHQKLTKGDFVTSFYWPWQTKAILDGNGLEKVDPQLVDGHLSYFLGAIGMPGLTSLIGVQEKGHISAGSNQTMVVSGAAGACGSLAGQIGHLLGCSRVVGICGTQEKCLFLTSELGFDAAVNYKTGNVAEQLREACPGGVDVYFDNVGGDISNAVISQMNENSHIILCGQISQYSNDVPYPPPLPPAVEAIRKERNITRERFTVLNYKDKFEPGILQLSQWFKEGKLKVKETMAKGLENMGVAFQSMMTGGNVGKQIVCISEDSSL

specific activity with PGR-2 (substrate specificity) [1]: no specific activity was detected
Compound: CCCCC[C@H](O)/C=C/[C@@H]1[C@@H](CC(=O)CCCCC(=O)O)[C@@H](O)C[C@H]1O [6-keto PGF1α]

specific activity with PGR-2 (substrate specificity) [1]: no specific activity was detected
Compound: CCCCCC(=O)CC[C@H]1[C@H](O)CC(=O)[C@@H]1C/C=C\CCCC(=O)O [13,14-dihydro-15-keto PGE2]
endogenous PPARs activity (reporter gene) [2]: failed to increase PPARs activity

Compound: CCCCCC(=O)CC[C@@H]1[C@@H](C/C=C\CCCC(=O)O)[C@@H](O)C[C@H]1O [13,14-dihydro-15-keto PGF2α]
endogenous PPARs activity (reporter gene) [2]: failed to increase PPARs activity

specific activity with PGR-2 (substrate specificity) [1]: reacted specifically
reduction catalyzed by PGR-2 (kinetics studies) [1]: catalyzed reduction
Compound: CCCCCC(=O)/C=C/[C@H]1[C@H](O)CC(=O)[C@@H]1CCCCCCC(=O)O [15-keto PGE1, 15-keto prostaglandin E1]

reduction catalyzed by PGR-2 (kinetics studies) [1]: catalyzed reduction
activation of PPAR-α (GAL4 fusion, luciferase reporter) [3]: to a lesser degree
activation of PPAR-γ (GAL4 fusion, luciferase reporter) [4]: activated
Compound: CCCCCC(=O)/C=C/[C@H]1[C@H](O)CC(=O)[C@@H]1C/C=C\CCCC(=O)O [15-keto PGE2, 15-keto prostaglandin E2]
adipogenesis (lipid droplets stained with oil-red O) [5]: effectively enhanced adipogenesis at a level similar to BRL49653
amount of IRS-1 protein [6]: did not increase
PPAR-γ1 and PPAR-γ2 expression ([6]; added with MIX, insulin and dexamethasone): significantly enhanced
expression of aP2, an adipocyte-specific marker ([6]; even in the absence of MIX): strongly induced
IRS-2 expression ([6]; in the presence of insulin and dexamethasone): enhanced the expression to a level similar to MIX
endogenous PPARs activity (reporter gene) [2]: enhanced endogenous PPARs activity significantly

specific activity with PGR-2 (substrate specificity) [1]: reacted specifically
reduction catalyzed by PGR-2 (kinetics studies) [1]: catalyzed reduction
Compound: CCCCCC(=O)/C=C/[C@@H]1[C@@H](CCCCCCC(=O)O)[C@@H](O)C[C@H]1O [15-keto PGF1α, 15-keto prostaglandin F1α]

specific activity with PGR-2 (substrate specificity) [1]: reacted specifically
reduction catalyzed by PGR-2 (kinetics studies) [1]: catalyzed reduction
activation of PPAR-α (GAL4 fusion, luciferase reporter) [3]: to a lesser degree
activation of PPAR-γ (GAL4 fusion, luciferase reporter) [4]: activated
Compound: CCCCCC(=O)/C=C/[C@@H]1[C@@H](C/C=C\CCCC(=O)O)[C@@H](O)C[C@H]1O [15-keto PGF2α, 15-keto prostaglandin F2α]
endogenous PPARs activity (reporter gene) [2]: enhanced endogenous PPARs activity significantly

reduction catalyzed by PGR-2 (kinetics studies) [1]: catalyzed reduction
Compound: CC(C)OC(=O)CCC/C=C\C[C@@H]1[C@@H](/C=C/C(=O)COc2cccc(C(F)(F)F)c2)[C@H](O)C[C@@H]1O [15-keto fluprostenol isopropyl ester]

reduction catalyzed by PGR-2 (kinetics studies) [1]: catalyzed reduction
Compound: O=C(O)CCC/C=C\C[C@@H]1[C@@H](/C=C/C(=O)COc2cccc(C(F)(F)F)c2)[C@H](O)C[C@@H]1O [15-keto fluprostenol]

Compound: O=C(c1cc2cc(Cl)ccc2oc1=O)c1cc2cc(Cl)ccc2oc1=O [Compound 27]
ability to enhance glucose uptake compared with Avandia ([7]; 1.67 μM compound vs 45 nM Avandia): comparable to that of Avandia
increase of glucose uptake ([7]; differentiated 3T3-L1 cells, 1.67 μM compound, 100 nM insulin to stimulate uptake): 30 folds

Compound: O=C(/C=C/c1ccccc1O)c1ccccc1O [Compound 45, 2,2′-dihydroxychalcone]
blood glucose levels compared to placebo controls [8]: significant reduction

specific activity with PGR-2 (substrate specificity) [1]: no specific activity was detected
Compound: CCCCC/C=C\C[C@@H](O)/C=C/C=C/C=C\[C@@H](O)CCCC(=O)O [leukotriene B4]

Compound: SEQ ID NO:7: small interfering RNA (siRNA) duplex gaguucaguuuaccggaug to silence PGR-2 expression (GAGUUCAGUUUACCGGAUG; chemistry not given here)
PGR-2 expression [9]: reduced
transcriptional activation of PPAR-γ [10]: increased

Compound: SEQ ID NO:8: small interfering RNA (siRNA) duplex guucaagugaggacucuuu to silence PGR-2 expression (GUUCAAGUGAGGACUCUUU; chemistry not given here)
PGR-2 expression [9]: reduced
transcriptional activation of PPAR-γ [10]: increased
